Values of other authors, collected in patent EP0305400B1, “A COMPOSITION HAVING REDUCED NEPHROTOXICITY COMPRISING A FATTY ACID CONTAINING COMPONENT AND CYCLOSPORINE” (BRIGHAM AND WOMEN'S HOSPITAL, priority 1986, dated 1987).

Test system: Tx synthetase
Conditions: rats treated with CSA

Cc1c(Cn2ccnc2)c2ccccc2n1CCC(=O)O [UK-38,485]
glomerular filtration rate (GFR): improved
urinary TxB2 levels: comparable to control levels
